One assay has as its target T1, serotonin re-uptake (Rattus norvegicus, UniProt P31652).
T1 construct: synaptosome prepared from rat whole brains except the cerebellums; from tissue; host or cells: synaptosomes from rat whole brain except the cerebellum
Kind of assay: Serotonin re-uptake inhibitory activity (synaptosome, [3H]5-HT). To be noted: synaptosome from rat whole brain except cerebellum; [3H]5-HT, 37° C.; read-out: IC50 (nM) Serotonin re-uptake inhibitory activity. It is filed as biochemical. The procedure:
Serotonin re-uptake inhibitory activity was determined using synaptosome prepared from rat whole brains except the cerebellums. Briefly, 10 μl of DMSO solution-dissolved test substance (control group; DMSO solution alone) was added to 1 ml of synaptosome and incubated for 5 min at 37° C. (in the control, DMSO alone was added to the synaptosome and incubated at 4° C.). Furthermore, 10 μl of [^3H]5-HT solution (final concentration: 10 μM as a total concentration of 5-HT, 100 nM as [^3H]5-HT) was added and incubated for 5 min at 37° C. Then 4 ml of ice-cold saline was added to stop the response. The response solution was filtered, 4 ml of saline was added, and the solution was once again filtered. Furthermore, 5 ml of Pico-Fluor was added, then ^3H levels on filter papers were counted by a liquid scintillation counter. Concentrations of test compounds to inhibit serotonin re-uptake by 50% (IC50) were calculated.

The next assay deals with T2, acetylcholinesterase (Mus musculus, UniProt P21836).
T2 construct: phosphate buffer solution containing the brain homogenate; from tissue; host or cells: mouse whole brain homogenate
T2 sequence (P21836 32-614): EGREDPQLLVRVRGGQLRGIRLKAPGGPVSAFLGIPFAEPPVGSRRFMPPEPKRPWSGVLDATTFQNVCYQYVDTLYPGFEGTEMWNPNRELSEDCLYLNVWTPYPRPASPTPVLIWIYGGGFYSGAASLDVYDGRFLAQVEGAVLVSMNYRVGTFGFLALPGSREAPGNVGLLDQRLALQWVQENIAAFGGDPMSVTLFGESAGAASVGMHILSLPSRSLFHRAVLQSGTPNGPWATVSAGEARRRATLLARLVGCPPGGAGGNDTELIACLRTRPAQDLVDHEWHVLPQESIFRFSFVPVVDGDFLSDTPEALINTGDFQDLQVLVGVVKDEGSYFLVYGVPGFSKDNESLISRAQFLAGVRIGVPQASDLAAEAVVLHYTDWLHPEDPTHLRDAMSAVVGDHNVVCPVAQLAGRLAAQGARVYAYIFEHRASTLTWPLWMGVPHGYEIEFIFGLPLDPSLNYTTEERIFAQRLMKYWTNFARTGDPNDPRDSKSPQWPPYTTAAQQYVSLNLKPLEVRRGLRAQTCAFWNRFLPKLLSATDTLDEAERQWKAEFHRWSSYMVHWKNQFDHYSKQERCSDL
Kind of assay: biochemical.

pIC50: −log10 of the molar value. Counter-ions that a name gives are not always drawn.

T1 sequence (P31652 whole entry): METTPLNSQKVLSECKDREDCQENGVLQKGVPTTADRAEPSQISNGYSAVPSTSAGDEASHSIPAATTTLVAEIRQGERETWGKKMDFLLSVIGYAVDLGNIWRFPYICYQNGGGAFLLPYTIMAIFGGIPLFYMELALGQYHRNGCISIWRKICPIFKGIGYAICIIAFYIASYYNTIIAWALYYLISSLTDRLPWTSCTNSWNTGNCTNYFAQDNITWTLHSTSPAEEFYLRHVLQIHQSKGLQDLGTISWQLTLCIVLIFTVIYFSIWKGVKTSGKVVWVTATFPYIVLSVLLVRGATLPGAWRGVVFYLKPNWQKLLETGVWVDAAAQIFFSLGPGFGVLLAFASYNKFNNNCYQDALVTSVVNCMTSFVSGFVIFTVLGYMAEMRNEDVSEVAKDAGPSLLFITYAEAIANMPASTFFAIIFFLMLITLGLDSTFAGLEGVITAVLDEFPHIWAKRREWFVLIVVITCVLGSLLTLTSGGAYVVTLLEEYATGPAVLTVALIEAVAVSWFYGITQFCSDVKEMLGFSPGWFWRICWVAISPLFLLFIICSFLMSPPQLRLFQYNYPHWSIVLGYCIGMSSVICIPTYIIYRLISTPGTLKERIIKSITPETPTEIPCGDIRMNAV

`CN[C@@H](CCOc1ccc([N+](=O)[O-])cc1)c1ccc(OC(=O)N(C)C)c(C)c1` [Test Compound 183, (S)-4-[3-(4-Nitrophenoxy)-1-methylaminopropyl]-2-methylphenyl dimethylcarbamate hydrochloride]: the IC50 at serotonin re-uptake is 67 nM. In addition, the pIC50 at acetylcholinesterase is 7.59.

Regarding `CN[C@H](CCOc1cccc(Cl)c1)c1ccc(OC(=O)N(C)C)cc1` [Test Compound 61, (R)-4-[3-(3-Chlorophenoxy)-1-methylaminopropyl]phenyl dimethylcarbamate hydrochloride], on serotonin re-uptake, the IC50 was 182 nM. This compound also showed a pIC50 against acetylcholinesterase of 6.64.

Consider `Cc1cc(OCCC2c3ccc(OC(=O)N(C)C)cc3CCN2C)ccc1Cl` (stereo not shown) [Test Compound 188, 2-Methyl-1-[2-(4-chloro-3-methylphenoxy)-ethyl]-1,2,3,4-tetrahydroisoquinolin-6-yl dimethylcarbamate hydrochloride], for which, on serotonin re-uptake, the IC50 stood at 150 nM. In addition, on acetylcholinesterase, the pIC50 is 7.28.

For `CN(C)C(=O)Oc1cccc([C@@H](CCOc2ccc([N+](=O)[O-])cc2)N(C)C)c1` [Test Compound 136, (R)-3-[3-(4-Nitrophenoxy)-1-dimethylaminopropyl]phenyl dimethylcarbamate hydrochloride], the IC50 at serotonin re-uptake was 236 nM. On acetylcholinesterase, this compound had a pIC50 of 6.01.

For the compound `CN(C)C(=O)Oc1ccc([C@@H](CCOc2ccc([N+](=O)[O-])cc2Cl)N(C)C)cc1` [Test Compound 130, (R)-4-[3-(2-Chloro-4-nitrophenoxy)-1-dimethylaminopropyl]phenyl dimethylcarbamate hydrochloride], the IC50 on serotonin re-uptake is 88 nM. For the same compound, at acetylcholinesterase, the pIC50 is 7.38.

As to `CNC(CCOc1ccc2ncccc2c1)c1ccc(OC(=O)N(C)C)cc1` (stereo not shown) [Test Compound 180, 4-[3-(Quinolin-6-yloxy)-1-methylaminopropyl]phenyl dimethylcarbamate hydrochloride], the half-inhibitory concentration (IC50) at serotonin re-uptake is 104 nM. On acetylcholinesterase, this compound showed a pIC50 of 6.95.

`CN[C@H](CCOc1ccc([N+](=O)[O-])cc1)c1ccc(OC(=O)N(C)C)c(C)c1` [Test Compound 184, (R)-4-[3-(4-Nitrophenoxy)-1-methylaminopropyl]-2-methylphenyl dimethylcarbamate hydrochloride]: the 50% inhibitory concentration (IC50) at serotonin re-uptake stood at 49 nM. The negative logarithm of the IC50 (pIC50) at acetylcholinesterase was 7.25.

Regarding `CNC(CCOc1ccc(F)c(F)c1)c1ccc(OC(=O)N(C)C)cc1` (stereo not shown) [Test Compound 54, 4-[3-(3,4-Difluorophenoxy)-1-methylaminopropyl]phenyl dimethylcarbamate hydrochloride], the IC50 at serotonin re-uptake was determined as 166 nM. The same compound showed a pIC50 against acetylcholinesterase of 6.17.

For the compound `CN[C@@H](CCOc1ccc(Cl)cc1)c1ccc(OC(=O)N(C)C)cc1` [Test Compound 82, (S)-4-[3-(4-Chlorophenoxy)-1-methylaminopropyl]phenyl dimethylcarbamate hydrochloride], the IC50 at serotonin re-uptake was determined as 377 nM. The compound also gave a pIC50 against acetylcholinesterase of 7.08.

`CN(C)C(=O)Oc1ccc(C(CCOc2ccc(F)c(F)c2)N(C)C)cc1` (stereo not shown) [Test Compound 76, 4-[3-(3,4-Difluorophenoxy)-1-dimethylaminopropyl]phenyl dimethylcarbamate hydrochloride]: the IC50 at serotonin re-uptake was 124 nM. Besides, at acetylcholinesterase, the pIC50 was 6.52.

In the case of `CN[C@H](CCOc1ccc([N+](=O)[O-])cc1Cl)c1ccc(OC(=O)N(C)C)cc1` [Test Compound 128, (R)-4-[3-(2-Chloro-4-nitrophenoxy)-1-methylaminopropyl]phenyl dimethylcarbamate hydrochloride], the IC50 at serotonin re-uptake turned out to be 70 nM. This compound also showed a pIC50 against acetylcholinesterase of 7.82.

Consider `CNC(CCOc1cccc(Cl)c1)c1ccc(OC(=O)N(C)C)cc1` (stereo not shown) [Test Compound 38, 4-[3-(3-chlorophenoxy)-1-methylaminopropyl]phenyl dimethylcarbamate hydrochloride], for which, on serotonin re-uptake, the IC50 was 199 nM. Moreover, at acetylcholinesterase, the negative-log IC50 (pIC50) is 6.76.

`CN(C)C(=O)Oc1ccc([C@@H](CCOc2ccc(F)c(F)c2)N(C)C)cc1` [Test Compound 152, (R)-4-[3-(3,4-Difluorophenoxy)-1-dimethylaminopropyl]phenyl dimethylcarbamate hydrochloride]: the IC50 on serotonin re-uptake was 67 nM. The same compound had a pIC50 against acetylcholinesterase of 6.51.

`CN[C@@H](CCOc1ccc(F)c(F)c1)c1ccc(OC(=O)N(C)C)cc1` [Test Compound 162, (S)-4-[3-(3,4-Difluorophenoxy)-1-methylaminopropyl]phenyl dimethylcarbamate hydrochloride]: on serotonin re-uptake, the IC50 came out at 594 nM. On acetylcholinesterase, this compound gave a pIC50 of 6.10.

As for `CN(C)C(=O)Oc1ccc(C(CCOc2c(F)c(F)c(F)c(F)c2F)N(C)C)cc1` (stereo not shown) [Test Compound 181, 4-[3-(Pentafluorophenoxy)-1-dimethylaminopropyl]phenyl dimethylcarbamate hydrochloride], on serotonin re-uptake, the IC50 came out at 44 nM. Moreover, the pIC50 at acetylcholinesterase was 6.70.

Consider `Cc1cc(OCCC2c3ccc(OC(=O)N(C)C)cc3C=CCN2C)ccc1Cl` (stereo not shown) [Test Compound 194, 2-Methyl-1-[2-(4-chloro-3-methylphenoxy)-ethyl]-2,3-dihydro-1H-benzo[c]azepin-7-yl dimethylcarbamate hydrochloride], for which the IC50 at serotonin re-uptake is 61 nM. Also, the negative-log IC50 (pIC50) against acetylcholinesterase is 6.99.

As for `CNC(CCOc1ccc(F)cc1)c1ccc(OC(=O)N(C)C)cc1` (stereo not shown) [Test Compound 30, 4-[3-(4-Fluorophenoxy)-1-methylaminopropyl]phenyl dimethylcarbamate hydrochloride], the IC50 at serotonin re-uptake amounted to 594 nM. Moreover, on acetylcholinesterase, the pIC50 was 6.10.

Take `CN(C)C(=O)Oc1ccc(C(CCOc2ccc(Cl)cc2)N(C)C)cc1` (stereo not shown) [Test Compound 41, 4-[3-(4-Chlorophenoxy)-1-dimethylaminopropyl]phenyl dimethylcarbamate hydrochloride]: on serotonin re-uptake, the IC50 is 507 nM. On acetylcholinesterase, this compound gave a pIC50 of 7.10.

Turning to `CN(C)C(=O)Oc1ccc(C(CCOc2ccc([N+](=O)[O-])cc2Cl)N(C)C)cc1` (stereo not shown) [Test Compound 131, 4-[3-(2-Chloro-4-nitrophenoxy)-1-dimethylaminopropyl]phenyl dimethylcarbamate hydrochloride], the IC50 at serotonin re-uptake was 129 nM. The pIC50 against acetylcholinesterase is 7.24.

Take `CNC(CCOc1ccc([N+](=O)[O-])cc1)c1cccc(OC(=O)N(C)C)c1` (stereo not shown) [Test Compound 95, 3-[1-Methylamino-3-(4-nitrophenoxy)propyl]phenyl dimethylcarbamate hydrochloride]: the IC50 at serotonin re-uptake came out at 221 nM. This compound also had a pIC50 against acetylcholinesterase of 7.28.

With `CNC(CCOc1ccc(Cl)cc1)c1ccc(OC(=O)N(C)C)cc1` (stereo not shown) [Test Compound 16, 4-[3-(4-Chlorophenoxy)-1-methylaminopropyl]phenyl dimethylcarbamate hydrochloride], at serotonin re-uptake, the half-maximal inhibitory concentration (IC50) turned out to be 493 nM. This compound also had a pIC50 on acetylcholinesterase of 6.68.

For `CNC(CCOc1ccc(Cl)c([N+](=O)[O-])c1)c1cccc(OC(=O)N(C)C)c1` (stereo not shown) [Test Compound 203, 3-[3-(4-Chloro-3-nitrophenoxy)-1-methylaminopropyl]phenyl dimethylcarbamate hydrochloride], on serotonin re-uptake, the IC50 was 40 nM. The same compound showed a negative logarithm of the IC50 (pIC50) against acetylcholinesterase of 7.31.

Take `CN(C)C(=O)Oc1ccc2c(c1)C(CCOc1ccc(Cl)cc1)N(C)CC2` (stereo not shown) [Test Compound 191, 2-Methyl-1-[2-(4-chlorophenoxy)-ethyl]-1,2,3,4-tetrahydroisoquinolin-7-yl dimethylcarbamate hydrochloride]: the IC50 on serotonin re-uptake stood at 520 nM. Also, on acetylcholinesterase, the negative-log IC50 (pIC50) is 6.58.

By IC50 is commonly meant the concentration at which inhibition is half-maximal. The term pIC50 denotes the negative decadic logarithm of the IC50, by convention in mol/L. A low value points to a high IC50.

The record behind these values is patent publication US7504393B2, “Benzylamine analogues” (priority 2001, dated 2009).
